Measurements published in patent publication US11932604B1, “9-(2-hydroxyphenyl)-10-[3-(dimethylamino)propyl]- 3,4,6,7,9,10-hexahydroacridine-1,8(2H,5H)-dione as an antimicrobial compound” (KING FAISAL UNIVERSITY, priority 2023, dated 2024).

Tests used:
Details in all cases: after 10, 20, 40 and 60 minutes at all dilutions 1:100 to 1:800
Ps. Aeruginosa = test: Antimicrobial activity by agar dilution, Ps. Aeruginosa; type: cell-based, Pseudomonas aeruginosa
Protocol: (§1) The antimicrobial properties of the synthesized compound 9-(2-hydroxyphenyl)-10-[3-(dimethylamino)propyl]-3,4,6,7,9,10-hexahydroacridine-1,8(2H,5H)-dione were studied by the method of agar dilution. Test solutions of each compound were prepared in a concentration of 1% using dimethylformamide as a solvent. Then they were diluted in a physiological solution to obtain the final experimental dilutions 1:100, 1:200, 1:400, and 1:800. The effect of these substances were compared with furacillin in a controllable study. The testing microbes used were gram positive bacteria St. Aereus, gram negative bacteria E. Coli and Ps. Aeruginosa, and Candida albicans fungi. The experiments used for this survey were meat-pentonlu agar (EPA) for cultivation of bacteria and Saburo environment for fungi. Each experiment used 1 ml of test solution on each plate 500 min. Add 2 drops of emulsified with microbes feel. All experimental samples were taken from the agar after 10, 20, 40, 60 minutes in the environment on the basis of Patrk planted. Bacteria were cultivated at a temperature of 37° C. for 1 day and the mushroom was kept in a thermostat for […] at a temperature of 28° C. Then the results were checked.

Candida albicans = test: Antimicrobial activity by agar dilution, Candida albicans; type: cell-based
Protocol: as §1

St. Aereus = test: Antimicrobial activity by agar dilution, St. Aereus; type: cell-based, Staphylococcus aureus
Protocol: as §1

E. Coli = test: Antimicrobial activity by agar dilution, E. Coli; type: cell-based, Escherichia coli
Protocol: as §1

CN(C)CCCN1C2=C(C(=O)CCC2)C(c2ccccc2O)C2=C1CCCC2=O [9-(2-hydroxyphenyl)-10-[3-(dimethylamino)propyl]-3,4,6,7,9,10-hexahydroacridine-1,8(2H,5H)-dione]
highest inhibition activity: inhibition activity, Ps. Aeruginosa (Ps. Aeruginosa) | inhibition activity, Candida albicans (Candida albicans) | inhibition activity, St. Aereus (St. Aereus) | inhibition activity, E. Coli (E. Coli)
